Experimental data from ChEMBL document CHEMBL4619712, “Double-component diazeniumdiolate derivatives as anti-cancer agents” (Bioorg Med Chem, 2020).

Tests used:
A549 = assay: Anticancer activity against human A549 cells assessed as inhibition of cell growth after 72 hrs by MTT or MTS assay; format: functional, cell-based; conditions: A549, 72 h
MDA-MB-231 = assay: Anticancer activity against human MDA-MB-231 cells assessed as inhibition of cell growth after 72 hrs by MTT or MTS assay; format: functional, cell-based; conditions: MDA-MB-231, 72 h
BT-474 = assay: Anticancer activity against human BT474 cells assessed as inhibition of cell growth after 72 hrs by MTT or MTS assay; format: functional, cell-based; conditions: BT-474, 72 h
Jurkat E6.1 = assay: Anticancer activity against human Jurkat E6-1 cells assessed as inhibition of cell growth after 72 hrs by MTT or MTS assay; format: functional, cell-based; conditions: Jurkat E6.1, 72 h
[1] = Prodrug conversion assessed as Escherichia coli GST catalyzed NO release at 1 uM measured after 5 hrs in presence of GSH by DAF-FM DA reagent based fluorescence spectrophotometric analysis; format: ADME
CCRF-CEM = assay: Anticancer activity against human CCRF-CEM cells assessed as inhibition of cell growth after 72 hrs by MTT or MTS assay; format: functional, cell-based

Structure (SMILES) | IC50 (A549) | IC50 (MDA-MB-231) | IC50 (BT-474) | IC50 (Jurkat E6.1) | fold change (FC) [1] | IC50 (CCRF-CEM)
O=[N+]([O-])c1ccc(O/N=[N+](\[O-])N2CCN(CCN3CCN(/[N+]([O-])=N/Oc4ccc([N+](=O)[O-])cc4[N+](=O)[O-])CC3)CC2)c([N+](=O)[O-])c1 | 17.1 µM | 17.6 µM | 10.7 µM | 3.71 µM | 2 | 2.64 µM
O=[N+]([O-])c1ccc(O/N=[N+](\[O-])N2CCN(CCCN3CCN(/[N+]([O-])=N/Oc4ccc([N+](=O)[O-])cc4[N+](=O)[O-])CC3)CC2)c([N+](=O)[O-])c1 | 18.8 µM | > 20 µM | 10.8 µM | 4.06 µM | 2 | 3.73 µM
